This passage reports Normal melting temperature results from the NIST ThermoML archive (doi:10.1021/je800600q).

Numbers after ± are expanded uncertainties.

For the data set the following is noted: Crystal; DTA.

Take `CCc1occc(=O)c1O` [2-ethyl-3-hydroxy-4H-pyran-4-one]: the Normal melting temperature was found to be 91.02 ± 0.5 °C.
